From patent US20120172359A1 (NOVARTIS AG, priority 2010, published 2012) come the findings set out here.

Structures can show the parent of a compound that is named as a salt.

This assay deals with Human BACE-1 (Homo sapiens, UniProt P56817). Kind of assay: Test 1: Inhibition of Human BACE-1. In kind it is biochemical. The note with it: Test 1; recombinant BACE-1 (extracellular domain), acetate buffer pH 4.5, 1 hour with test compound at room temperature, fluorescence-quenched peptide substrate; read-out: Bace IC50.
Sequence of Human BACE-1 (P56817 46-457 limits assumed): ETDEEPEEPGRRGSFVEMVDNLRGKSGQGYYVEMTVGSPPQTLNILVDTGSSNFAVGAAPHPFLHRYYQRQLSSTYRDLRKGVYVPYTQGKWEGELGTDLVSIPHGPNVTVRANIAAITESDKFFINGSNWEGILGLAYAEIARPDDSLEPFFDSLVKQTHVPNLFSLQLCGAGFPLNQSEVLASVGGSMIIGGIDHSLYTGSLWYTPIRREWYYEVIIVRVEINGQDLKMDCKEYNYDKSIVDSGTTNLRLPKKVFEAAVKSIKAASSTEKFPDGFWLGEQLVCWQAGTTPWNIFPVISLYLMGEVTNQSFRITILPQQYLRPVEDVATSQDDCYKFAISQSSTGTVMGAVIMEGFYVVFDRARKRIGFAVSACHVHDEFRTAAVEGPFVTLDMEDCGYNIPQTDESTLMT
For the compound `CC1(C)OC[C@](c2cc(NC(=O)c3ccc(C#N)cn3)ccc2F)(C(F)F)N=C1N` [Example 79, 5-Cyano-pyridine-2-carboxylic acid[3-(5-amino-3-difluoromethyl-6,6-dimethyl-3,6-dihydro-2H-[1,4]oxazin-3-yl)-4-fluoro-phenyl]-amide], the IC50 was found to be 120 nM. As for `CC1(C)OCC(c2cc(NC(=O)c3ccc(Br)cn3)ccc2F)(C(F)F)N=C1N` (stereo not drawn) [Example 80, 5-Bromo-pyridine-2-carboxylic acid [3-(5-amino-3-difluoromethyl-6,6-dimethyl-3,6-dihydro-2H-[1,4]oxazin-3-yl)-4-fluoro-phenyl]-amide hydrochloride], the half-maximal inhibitory concentration (IC50) was 74 nM. As to `NC1=NC(c2cc(NC(=O)c3ccc(Br)cn3)c(F)cc2F)(C(F)F)COC1` (stereo not drawn) [Example 81, 5-Bromo-pyridine-2-carboxylic acid [5-(5-amino-3-difluoromethyl-3,6-dihydro-2H-[1,4]oxazin-3-yl)-2,4-difluoro-phenyl]-amide hydrochloride], the half-inhibitory concentration (IC50) was determined as 1100 nM. The value for `N#Cc1ccc(C(=O)Nc2cc(C3(C(F)F)COCC(N)=N3)c(F)cc2F)nc1` (stereo not drawn) [Example 82, 5-Cyano-pyridine-2-carboxylic acid [5-(5-amino-3-difluoromethyl-3,6-dihydro-2H-[1,4]oxazin-3-yl)-2,4-difluoro-phenyl]-amide hydrochloride] was 3000 nM; that for `COc1cc(Br)cnc1C(=O)Nc1cc(C2(C(F)F)COCC(N)=N2)c(F)cc1F` (stereo not drawn) [Example 83, 5-Bromo-3-methoxy-pyridine-2-carboxylic acid [5-(5-amino-3-difluoromethyl-3,6-dihydro-2H-[1,4]oxazin-3-yl)-2,4-difluoro-phenyl]-amide hydrochloride] was 2900 nM.

With `NC1=NC(c2cc(NC(=O)c3ncc(Br)cc3O)c(F)cc2F)(C(F)F)COC1` (stereo not drawn) [Example 84, 5-Bromo-3-hydroxy-pyridine-2-carboxylic acid [5-(5-amino-3-difluoromethyl-3,6-dihydro-2H-[1,4]oxazin-3-yl)-2,4-difluoro-phenyl]-amide hydrochloride], the IC50 amounted to 930 nM. `NC1=N[C@](CF)(c2cc(NC(=O)c3ccc(Cl)cn3)ccc2F)COC1` [Example 85, 5-Chloro-pyridine-2-carboxylic acid [3-((R)-5-amino-3-fluoromethyl-3,6-dihydro-2H-[1,4]oxazin-3-yl)-4-fluoro-phenyl]-amide hydrochloride]: the IC50 was 26 nM. For the compound `NC1=NC(CF)(c2cc(NC(=O)c3ccc(Br)cn3)ccc2F)COC1` (stereo not drawn) [Example 86, 5-Bromo-pyridine-2-carboxylic acid [3-(5-amino-3-fluoromethyl-3,6-dihydro-2H-[1,4]oxazin-3-yl)-4-fluoro-phenyl]-amide hydrochloride], the concentration for half-maximal inhibition (IC50) came out at 44 nM. The value for `NC1=NC(CF)(c2cc(NC(=O)c3ccc(Cl)cn3)ccc2F)COC1` (stereo not drawn) [Example 87, 5-Chloro-pyridine-2-carboxylic acid [3-(5-amino-3-fluoromethyl-3,6-dihydro-2H-[1,4]oxazin-3-yl)-4-fluoro-phenyl]-amide hydrochloride] was 57 nM. For `NC1=NC(CF)(c2cc(NC(=O)c3ncc(Cl)cc3Cl)ccc2F)COC1` (stereo not drawn) [Example 88, 3,5-Dichloro-pyridine-2-carboxylic acid [3-(5-amino-3-fluoromethyl-3,6-dihydro-2H-[1,4]oxazin-3-yl)-4-fluoro-phenyl]-amide hydrochloride], the half-inhibitory concentration (IC50) came to 33 nM. Turning to `N#Cc1ccc(C(=O)Nc2ccc(F)c(C3(CF)COCC(N)=N3)c2)nc1` (stereo not drawn) [Example 89, 5-Cyano-pyridine-2-carboxylic acid [3-(5-amino-3-fluoromethyl-3,6-dihydro-2H-[1,4]oxazin-3-yl)-4-fluoro-phenyl]-amide hydrochloride], the IC50 stood at 94 nM. `Cc1cc(Br)cnc1C(=O)Nc1ccc(F)c(C2(CF)COCC(N)=N2)c1` (stereo not drawn) [Example 90, 5-Bromo-3-methyl-pyridine-2-carboxylic acid [3-(5-amino-3-fluoromethyl-3,6-dihydro-2H-[1,4]oxazin-3-yl)-4-fluoro-phenyl]-amide hydrochloride]: the half-maximal inhibitory concentration (IC50) came out at 39 nM. As to `Cc1cc(Br)cnc1C(=O)Nc1ccc(F)c([C@]2(CF)COCC(N)=N2)c1` [Example 91, 5-Bromo-3-methyl-pyridine-2-carboxylic acid [3-((R)-5-amino-3-fluoromethyl-3,6-dihydro-2H-[1,4]oxazin-3-yl)-4-fluoro-phenyl]-amide hydrochloride], the half-inhibitory concentration (IC50) was 15 nM.

On to `Cc1cc(Cl)cnc1C(=O)Nc1ccc(F)c([C@]2(CF)COCC(N)=N2)c1` [Example 92, 5-Chloro-3-methyl-pyridine-2-carboxylic acid [3-((R)-5-amino-3-fluoromethyl-3,6-dihydro-2H-[1,4]oxazin-3-yl)-4-fluoro-phenyl]-amide], for which the IC50 came out at 5 nM. The value for `Cl.[2H]c1nc(C(=O)Nc2ccc(F)c([C@]3(CF)COCC(N)=N3)c2)c(C([2H])([2H])[2H])c([2H])c1Cl` [Example 93, 5-Chloro-4,6-dideutero-3-trideuteromethyl-pyridine-2-carboxylic acid [3-((R)-5-amino-3-fluoromethyl-3,6-dihydro-2H-[1,4]oxazin-3-yl)-4-fluoro-phenyl]-amide hydrochloride] was 8 nM; that for `NC1=N[C@](CF)(c2cc(NC(=O)c3ncc(Br)cc3O)ccc2F)COC1` [Example 94, 5-Bromo-3-hydroxy-pyridine-2-carboxylic acid [3-((R)-5-amino-3-fluoromethyl-3,6-dihydro-2H-[1,4]oxazin-3-yl)-4-fluoro-phenyl]-amide hydrochloride] was 22 nM; that for `COc1cc(Br)cnc1C(=O)Nc1ccc(F)c([C@]2(CF)COCC(N)=N2)c1` [Example 95, 5-Bromo-3-methoxy-pyridine-2-carboxylic acid [3-((R)-5-amino-3-fluoromethyl-3,6-dihydro-2H-[1,4]oxazin-3-yl)-4-fluoro-phenyl]-amide] was 390 nM.

Take `NC1=N[C@@](c2cc(NC(=O)c3ccc(Br)cn3)ccc2F)(C(F)F)CCOC1` [Example 97, 5-Bromo-pyridine-2-carboxylic acid[3-((S)-3-amino-5-difluoromethyl-2,5,6,7-tetrahydro-[1,4]oxazepin-5-yl)-4-fluoro-phenyl]-amide hydrochloride]: the concentration for half-maximal inhibition (IC50) worked out at 18 nM. Turning to `N#Cc1ccc(C(=O)Nc2ccc(F)c(C3(C(F)(F)F)CCOCC(N)=N3)c2)nc1` (stereo not drawn) [Example 98, 5-Cyano-pyridine-2-carboxylic acid [3-(3-amino-5-trifluoromethyl-2,5,6,7-tetrahydro-[1,4]oxazepin-5-yl)-4-fluoro-phenyl]-amide hydrochloride], the IC50 was found to be 240 nM.

For `CC1(c2cc(NC(=O)c3ccc(Br)cn3)ccc2F)N=C(N)COCC1(F)F` (stereo not drawn) [Example 101, 5-Bromo-pyridine-2-carboxylic acid [3-(3-amino-6,6-difluoro-5-methyl-2,5,6,7-tetrahydro-[1,4]oxazepin-5-yl)-4-fluoro-phenyl]-amide], the concentration for half-maximal inhibition (IC50) was 30 nM. On to `NC1=NC(c2cccc(NC(=O)c3cc(Br)co3)c2)(C(F)F)COC1` (stereo not drawn) [Example 102, 4-Bromo-furan-2-carboxylic acid [3-(5-amino-3-difluoromethyl-3,6-dihydro-2H-[1,4]oxazin-3-yl)-phenyl]-amide hydrochloride], for which the concentration for half-maximal inhibition (IC50) was determined as 890 nM.

The IC50 is the concentration that gives 50% inhibition.
